# According to patent EP0587374A2, “Sulfated sterol glycosides and their use against viral infections” (VIROSTAT (NA) NV, priority 1992, dated 1994):
# Read-outs that look alike come from different tables or passages of the source.
# Key:
# [1] = Method: The test animal received food and water without restriction.
# On Tuesdays and Fridays blood samples were taken for blood chemistry, haematology and the measurement of trough plasma levels of the drug. These samples were taken prior to the administration of the drug, but at intervals as indicated in Figure 2 (which is a histogram of blood concentration levels against time) and Table 5. Blood samples were also taken 5, 10 and 15 minutes after drug adminstration in order to assess the peak plasma concentrations achieved. After 30 days the baboon was sacrificed and tissue samples were collected for testing.
# Feline Herpes virus = settings: 50 µg/mℓ
# [2] = haematology summary, following initial drug administration
smiles,measurement,setting,value
"CC[C@H](CC[C@@H](C)[C@H]1CC[C@H]2[C@@H]3CC=C4C[C@@H](O[C@@H]5O[C@H](COS(=O)(=O)O)[C@@H](OS(=O)(=O)O)[C@H](OS(=O)(=O)O)[C@H]5OS(=O)(=O)O)CC[C@]4(C)[C@H]3CC[C@]12C)C(C)C [BSSG-(SO₄⁻)₄, β-Sitosteryl β-D-glucoside tetra-sulphate]",behavioral characteristics,"[1]; 5 mg/kg i.v. daily, period of treatment",remained unchanged
same,BSSG-³⁵(SO₄⁻)₄ PLASMA LEVEL,"[1]; 5 mg/kg i.v. daily, sample 3-4-92 (Fri: Pre IV), trough",56.0 µg/mL
same,BSSG-³⁵(SO₄⁻)₄ PLASMA LEVEL,"[1]; 5 mg/kg i.v. daily, sample 7-4-92 (Tues: Pre IV), trough",71.0 µg/mL
same,BSSG-³⁵(SO₄⁻)₄ PLASMA LEVEL,"[1]; 5 mg/kg i.v. daily, sample 10-4-92 (Fri: 10 min Post IV), peak",149.5 µg/mL
same,BSSG-³⁵(SO₄⁻)₄ PLASMA LEVEL,"[1]; 5 mg/kg i.v. daily, sample 10-4-92 (Fri: Pre IV), trough",52.5 µg/mL
same,BSSG-³⁵(SO₄⁻)₄ PLASMA LEVEL,"[1]; 5 mg/kg i.v. daily, sample 14-4-92 (Tues: 15 min Post IV), peak",149.7 µg/mL
same,BSSG-³⁵(SO₄⁻)₄ PLASMA LEVEL,"[1]; 5 mg/kg i.v. daily, sample 14-4-92 (Tues: Pre IV), trough",65.0 µg/mL
same,BSSG-³⁵(SO₄⁻)₄ PLASMA LEVEL,"[1]; 5 mg/kg i.v. daily, sample 15-4-92 (Wed: 4 hr Post IV)",72.5 µg/mL
same,BSSG-³⁵(SO₄⁻)₄ PLASMA LEVEL,"[1]; 5 mg/kg i.v. daily, sample 27-3-92 (Fri: Pre IV), trough",60.3 µg/mL
same,BSSG-³⁵(SO₄⁻)₄ PLASMA LEVEL,"[1]; 5 mg/kg i.v. daily, sample 31-3-92 (Tues: Pre IV), trough",59.0 µg/mL
same,24-hour post-dose-trough plasma levels,"[1]; 5 mg/kg i.v. daily, subsequent samples of the study period",> 50 µg/mL
same,BSSG-³⁵(SO₄⁻)₄ PLASMA LEVEL,"[1]; 100 mg (5 mg/kg) i.v. daily Mon-Fri from 16-3-92, sample 24-3-92 (Tues: Pre IV), trough",33.8 µg/mL
same,autopsy findings,[1]; after 30 days of 5 mg/kg i.v. daily,no organ discoloration or change in organ texture
same,"chemical pathology, overall conclusion","[1]; blood chemistry twice a week, Table 6",no direct proof that the changes occurring in time were due to direct toxicity of the substance
same,Haemoglobin (Hb),[1]; general decrease during drug administration from base-line 14.8,12.5 g/dL
same,haematocrit (Hct),[1]; general decrease during drug administration from base-line 43.4,36.9%
same,monocyte count,"[1]; haematology summary, after the second week of drug administration, still present at the end",Absolute monocytopaenia
same,total white cell count,"[1]; haematology summary, following drug administration",slight increase in total white cell count but within normal range
same,lymphocyte count,[1]; [2],transient absolute lymphocytosis
same,platelet count,[1]; [2],transient decrease in platelet count (but still within normal range)
same,haemolysis (Hb and Hct trend),"[1]; haematology summary, supported by biochemical and bone marrow iron findings",slight haemolysis
same,FREE HAEMOGLOBIN CONCENTRATION,"[1]; plasma, 5 mg/kg i.v. daily, sample 7-4-92 (Tues: Pre IV), before treatment 0.004, 0.005",0.005 mg/dL
same,plasma levels of the drug sustained,[1]; single daily i.v. injection of 5 mg/kg body mass over a month long period,50 to 170 µg/mL
same,histological findings,[1]; tissue samples after 30 days of 5 mg/kg i.v. daily,not severe and were fairly non-specific
same,bone marrow cellularity,"[1]; trephine biopsy after 30 days, slightly lower than that of an adult man",approximately 40%
same,major routes of excretion,"[1]; ³⁵S isotope in urine samples and faeces, high levels in the bile",via the kidney and the liver
same,cytopathic effect of Feline Herpes virus,Feline Herpes virus,delayed by a day
